Test results as given in ChEMBL document CHEMBL4421722, “Inhibitors of protein prenyltransferases” (2013).

Species on record: Rattus norvegicus
Test: Inhibition of rat recombinant geranylgeranyltransferase type I expressed in Escherichia coli assessed as residual enzyme activity for geranylgeranylation of K-Ras4B at 50 uM incubated for 30 mins in presence of [3H]GGPP by scintillation counting assay relative to control

Row | Activity | SMILES
1 | 91.4% | C=CCS[C@@H]1C[C@@H](c2ccc(C)cc2)N(S(C)(=O)=O)C[C@H]1C(=O)O
2 | 53% | COc1ccc([C@@H]2C[C@@H](SCc3ccc(C(C)(C)C)cc3)[C@H](C(=O)O)CN2S(=O)(=O)c2ccccc2)cc1
3 | 102% | CC(=O)C1=CC[C@@H](c2cccc(C)c2)N(S(=O)(=O)c2ccc(C)cc2)C1
4 | 66.6% | Cc1ccc([C@@H]2CC=C(C(=O)O)[C@H](c3cccc(Br)c3)N2S(C)(=O)=O)cc1
5 | 66.7% | Cc1ccc(S(=O)(=O)N2[C@@H](c3cccc(Cl)c3)C(C(=O)O)=CC[C@H]2c2ccc(F)cc2)cc1
6 | 69% | CCCS[C@@H]1C[C@@H](c2ccc(CC)cc2)N(S(=O)(=O)c2ccc(C)cc2)C[C@H]1C(=O)O
7 | 64.4% | CCc1ccc([C@@H]2C[C@@H](SCc3ccc(C(C)(C)C)cc3)[C@H](C(=O)O)CN2S(=O)(=O)c2ccc(C)cc2)cc1
8 | 69.8% | Cc1ccc([C@@H]2CC=C(C(=O)O)[C@H](c3cccc(C)c3)N2S(=O)(=O)c2ccccc2)cc1
9 | 79.6% | COc1ccc([C@@H]2C[C@@H](Sc3ccccc3)[C@H](C(=O)O)CN2S(=O)(=O)c2ccc(C)cc2)cc1
10 | 52.8% | Cc1ccc(S(=O)(=O)N2[C@@H](c3cccc(F)c3)C(C(=O)O)=CC[C@H]2c2cccc(Cl)c2)cc1
11 | 101% | COc1ccc(S[C@@H]2C[C@@H](c3ccc(OC)c(OC)c3)N(S(=O)(=O)c3ccc(C)cc3)C[C@H]2C(=O)O)cc1
12 | 87.1% | Cc1ccc([C@@H]2C[C@@H](Sc3ccccc3)[C@H](C(=O)O)CN2S(=O)(=O)c2ccc(Cl)cc2)cc1
13 | 98.8% | CC(=O)C1=CC[C@@H](c2ccccc2)N(S(=O)(=O)c2ccc(C)cc2)C1
14 | 88.3% | Cc1ccc([C@H]2C(C(=O)O)=CC[C@@H](c3ccc(C)cc3)N2S(=O)(=O)c2ccccc2C)cc1
15 | 105% | CC(=O)C1=CC[C@@H](c2cccc(Br)c2)N(S(=O)(=O)c2ccc(C)cc2)C1
16 | 68.5% | COc1ccc([C@@H]2CC=C(C(=O)O)[C@H](c3ccc(C(C)(C)C)cc3)N2S(=O)(=O)c2ccc(Cl)cc2)cc1
17 | 94.8% | CCCCCS[C@@H]1C[C@@H](c2ccc(OC)cc2)N(S(=O)(=O)c2ccccc2)C[C@H]1C(=O)O
18 | 105% | COc1ccc([C@@H]2C[C@@H](Sc3ccc(C)cc3)[C@H](C(=O)O)CN2S(=O)(=O)c2ccc(C)cc2)cc1OC
19 | 81.8% | Cc1ccc([C@@H]2C[C@@H](SCc3ccccc3)[C@H](C(=O)O)CN2S(C)(=O)=O)cc1
20 | 95.6% | COc1cc([C@@H]2C[C@@H](Sc3ccc(C)cc3)[C@H](C(=O)O)CN2S(=O)(=O)c2ccc(C)cc2)cc(OC)c1OC
21 | 106% | COc1cc([C@@H]2C[C@@H](SCCC(C)C)[C@H](C(=O)O)CN2S(=O)(=O)c2ccc(C)cc2)cc(OC)c1OC
22 | 58.3% | CCCCS[C@@H]1C[C@@H](c2ccc(CC)cc2)N(S(=O)(=O)c2ccc(C)cc2)C[C@H]1C(=O)O
23 | 74.7% | Cc1ccc(S(=O)(=O)N2[C@@H](c3ccc(Cl)cc3)C(C(=O)O)=CC[C@H]2c2cccc(C)c2)cc1
24 | 69.3% | COc1ccc([C@@H]2CC=C(C(=O)O)[C@H](c3cccc(F)c3)N2S(=O)(=O)c2ccc(Cl)cc2)cc1
25 | 75.6% | COc1ccc([C@@H]2C[C@@H](SCC(C)C)[C@H](C(=O)O)CN2S(=O)(=O)c2ccc(Cl)cc2)cc1
26 | 69.2% | CCc1ccc([C@@H]2CC=C(C(=O)O)[C@H](c3ccc(Br)cc3)N2S(=O)(=O)c2ccc(C)cc2)cc1

Row | Activity | SMILES
27 | 58.3% | CCS[C@@H]1C[C@@H](c2ccc(C)cc2)N(S(=O)(=O)c2ccc(Cl)cc2)C[C@H]1C(=O)O
28 | 71.1% | CCS[C@@H]1C[C@@H](c2ccc(OC)cc2)N(S(=O)(=O)c2ccccc2C)C[C@H]1C(=O)O
29 | 93.5% | Cc1ccc([C@@H]2C[C@@H](SC3CCCC3)[C@H](C(=O)O)CN2S(=O)(=O)c2ccccc2C)cc1
30 | 56% | Cc1ccc(S(=O)(=O)N2[C@@H](c3ccc(F)cc3)C(C(=O)O)=CC[C@H]2c2ccccc2F)cc1
31 | 96.7% | C=CCS[C@@H]1C[C@@H](c2ccc(OCC)cc2)N(S(=O)(=O)c2ccc(C)cc2)C[C@H]1C(=O)O
32 | 79.7% | COc1ccc([C@@H]2C[C@@H](SCC(C)C)[C@H](C(=O)O)CN2S(=O)(=O)c2ccccc2C)cc1
33 | 56.6% | Cc1ccc(S(=O)(=O)N2[C@@H](c3cccc(Br)c3)C(C(=O)O)=CC[C@H]2c2ccc(Cl)cc2)cc1
34 | 67.2% | COc1ccc([C@@H]2CC=C(C(=O)O)[C@H](c3ccc(F)cc3)N2S(=O)(=O)c2ccc(Cl)cc2)cc1
35 | 68.3% | CCCCCCS[C@@H]1C[C@@H](c2ccc(OC)cc2)N(S(=O)(=O)c2ccc(Cl)cc2)C[C@H]1C(=O)O
36 | 86% | COc1ccc([C@@H]2CC=C(C(=O)O)[C@H](c3ccc(C)cc3)N2S(=O)(=O)c2ccccc2C)cc1
37 | 58.2% | COc1ccc([C@@H]2CC=C(C(=O)O)[C@H](c3cccc(Br)c3)N2S(=O)(=O)c2ccccc2)cc1
38 | 57.7% | O=C(O)C1=CC[C@@H](c2ccc(Cl)cc2)N(S(=O)(=O)c2ccc(Cl)cc2)[C@H]1c1ccc(Cl)cc1
39 | 75.1% | C=CCS[C@@H]1C[C@@H](c2cccc(OC)c2)N(S(=O)(=O)c2ccc(C)cc2)C[C@H]1C(=O)O
40 | 57.9% | CCCCCS[C@@H]1C[C@@H](c2ccc(Cl)cc2)N(S(=O)(=O)c2ccccc2C)C[C@H]1C(=O)O
41 | 91.8% | COc1ccc([C@@H]2C[C@@H](Sc3ccc(C)cc3)[C@H](C(=O)O)CN2S(=O)(=O)c2ccc(C)cc2)cc1
42 | 81.4% | COc1ccc([C@@H]2C[C@@H](SCCC(C)C)[C@H](C(=O)O)CN2S(=O)(=O)c2ccc(Cl)cc2)cc1
43 | 63.1% | COc1cccc([C@@H]2CC=C(C(=O)O)[C@H](c3ccc(C)cc3)N2S(=O)(=O)c2ccc(C)cc2)c1
44 | 64.9% | COC(=O)c1ccccc1S(=O)(=O)N1[C@@H](c2cccc(Br)c2)C(C(=O)O)=CC[C@H]1c1ccc(C)cc1
45 | 85.3% | CC(=O)C1=CC[C@@H](c2ccc(C)cc2)N(S(=O)(=O)c2ccccc2C)C1
46 | 70.9% | CCCCCS[C@@H]1C[C@@H](c2ccc(OC)cc2)N(S(=O)(=O)c2ccc(Cl)cc2)C[C@H]1C(=O)O
47 | 68.1% | Cc1ccc([C@@H]2CC=C(C(=O)O)[C@H](c3ccc(F)cc3)N2S(=O)(=O)c2ccccc2)cc1
48 | 84.4% | Cc1ccc([C@@H]2CC=C(C(=O)O)[C@H](c3ccc(F)cc3)N2S(C)(=O)=O)cc1
49 | 108% | CC(=O)C1=CC[C@@H](c2ccc(C)cc2)N(S(C)(=O)=O)C1
50 | 76.2% | COc1ccc([C@@H]2CC=C(C(=O)O)[C@H](c3ccc(Br)cc3)N2S(=O)(=O)c2ccc(Cl)cc2)cc1
51 | 78.2% | Cc1ccc([C@@H]2CC=C(C(=O)O)[C@H](c3ccc(C(C)(C)C)cc3)N2S(C)(=O)=O)cc1
52 | 66.7% | Cc1ccc(S(=O)(=O)N2[C@@H](c3cccc(C)c3)C(C(=O)O)=CC[C@H]2c2ccc(C#N)cc2)cc1

Row | Activity | SMILES
53 | 78.4% | CCOc1ccc([C@@H]2CC=C(C(=O)O)[C@H](c3cccc(Br)c3)N2S(=O)(=O)c2ccc(C)cc2)cc1
54 | 78.4% | COc1ccc(S[C@@H]2C[C@@H](c3ccc(C)cc3)N(S(=O)(=O)c3ccc(C)cc3)C[C@H]2C(=O)O)cc1
55 | 69.8% | CCCS[C@@H]1C[C@@H](c2ccc(C)cc2)N(S(=O)(=O)c2ccc(C)cc2)C[C@H]1C(=O)O
56 | 70.1% | Cc1ccc(S(=O)(=O)N2[C@@H](c3cccc(Cl)c3)C(C(=O)O)=CC[C@H]2c2ccccc2F)cc1
57 | 88.4% | CCCS[C@@H]1C[C@@H](c2ccc(OC)cc2)N(S(=O)(=O)c2ccccc2C)C[C@H]1C(=O)O
58 | 50.4% | CS(=O)(=O)N1[C@@H](c2cccc(Br)c2)C(C(=O)O)=CC[C@H]1c1ccc(Cl)cc1
59 | 108% | Cc1ccc(S[C@@H]2C[C@@H](c3ccc(C)cc3)N(S(C)(=O)=O)C[C@H]2C(=O)O)cc1
60 | 67.6% | CCCCCCS[C@@H]1C[C@@H](c2ccc(OCC)cc2)N(S(=O)(=O)c2ccc(C)cc2)C[C@H]1C(=O)O
61 | 83.1% | CCCCCCS[C@@H]1C[C@@H](c2ccc(C)cc2)N(S(C)(=O)=O)C[C@H]1C(=O)O
62 | 65.9% | COc1ccc([C@@H]2C[C@@H](SCCC(C)C)[C@H](C(=O)O)CN2S(=O)(=O)c2ccccc2C)cc1
63 | 90.3% | CC(=O)C1=CC[C@@H](c2cccs2)N(S(=O)(=O)c2ccc(C)cc2)C1
64 | 80.4% | Cc1ccc(S[C@@H]2C[C@@H](c3ccccc3F)N(S(=O)(=O)c3ccc(C)cc3)C[C@H]2C(=O)O)cc1
65 | 105% | CCCCCS[C@@H]1C[C@@H](c2cccc(OC)c2)N(S(=O)(=O)c2ccc(C)cc2)C[C@H]1C(=O)O
66 | 71.6% | CCOc1ccc([C@@H]2CC=C(C(=O)O)[C@H](c3ccc(Cl)cc3)N2S(=O)(=O)c2ccc(C)cc2)cc1
67 | 74.3% | C=CCS[C@@H]1C[C@@H](c2ccc(C)cc2)N(S(=O)(=O)c2ccc(Cl)cc2)C[C@H]1C(=O)O
68 | 75.6% | Cc1ccc(S(=O)(=O)N2[C@@H](c3ccc(Cl)cc3)C(C(=O)O)=CC[C@H]2c2cccs2)cc1
69 | 110% | CC(C)(C)c1ccc([C@H]2C(C(=O)O)=CC[C@@H](c3ccc(Cl)cc3)N2S(=O)(=O)c2ccc(Cl)cc2)cc1
70 | 62.7% | CCCCCCS[C@@H]1C[C@@H](c2ccc3c(c2)OCO3)N(S(=O)(=O)c2ccc(C)cc2)C[C@H]1C(=O)O
71 | 79.1% | CCOc1ccc([C@@H]2C[C@@H](Sc3ccc(OC)cc3)[C@H](C(=O)O)CN2S(=O)(=O)c2ccc(C)cc2)cc1
72 | 102% | COc1cc([C@@H]2C[C@@H](Sc3ccc(Cl)cc3)[C@H](C(=O)O)CN2S(=O)(=O)c2ccc(C)cc2)cc(OC)c1OC
73 | 43.1% | Cc1ccccc1S(=O)(=O)N1C[C@@H](C(=O)O)[C@H](SCc2ccc(C(C)(C)C)cc2)C[C@H]1c1ccc(Cl)cc1
74 | 89.5% | CCCS[C@@H]1C[C@@H](c2ccc(OC)cc2)N(S(=O)(=O)c2ccccc2)C[C@H]1C(=O)O
75 | 62.3% | Cc1ccc(S(=O)(=O)N2[C@@H](c3cccc(Cl)c3)C(C(=O)O)=CC[C@H]2c2cccc(F)c2)cc1
76 | 69.9% | CS(=O)(=O)N1[C@@H](c2cccc(F)c2)C(C(=O)O)=CC[C@H]1c1ccc(Cl)cc1
77 | 84.5% | COc1ccc([C@@H]2CC=C(C(=O)O)[C@H](c3cccc(Br)c3)N2S(=O)(=O)c2ccc(C)cc2)cc1
78 | 57.6% | Cc1ccc(S(=O)(=O)N2[C@@H](c3ccc(Cl)cc3)C(C(=O)O)=CC[C@H]2c2ccc(C(C)C)cc2)cc1
